Molecules are shown by their SMILES.

The results in this text go back to US20090269795A1, “Mutant alpha4betadelta GABAA receptor and methods of treating anxiety or irritability” (priority 2007, published 2009).

Assay [1] deals with T1, α4(R353C)β2δ GABAA receptors (UniProt P63138+Q9D6F4, R389C).
T1 construct: expressed in transfected cells; host or cells: HEK-293
Description: Patch clamp of GABA-gated current at mutated receptors in HEK-293 cells. Conditions: 30 nM THP. It is filed as cell-based, mouse α4. The procedure:
(§1) Whole cell patch clamp recording—GABA-gated currents were recorded at room temperature (20-22° C.) at a holding potential of −50 mV^14. The pipet solution contained (in mM): N-methyl-D-glucamine chloride 120, Cs4BAPTA 5 (Calbiochem), Mg-ATP 5, and an ATP regeneration system (20 mM Tris phosphocreatine and creatine kinase). Internal [Cl^−] or the holding potential were varied, using gluconate as the anion, to alter the direction of Cl^− flow, corrected for the junction potential. In some cases, current-voltage curves were constructed using the peak current response to agonist or agonist+THP across a range of holding potentials (−60 to +60) applied as 10 mV steps, or as a voltage ramp. […] Traces are presented as the average of 3 traces after subtraction of the leak current. […] This rapid application technique yields currents with a rapid rise phase. THP was also bath applied 30 s prior to tests of steroid effects. Currents were recorded using an Axopatch 1D amplifier (Axon Instruments) filtered at 2 kHz (four-pole Bessel filter) and detected at 10 kHz (pClamp 5.1). Analysis of peak current was accomplished with pClamp 9.2 and Origin software (Microcal).
(§2) Mutagenesis: Site-directed mutations were made using the Quik-Change Mutagenesis Kit I or II (Stratagene Inc., La Jolla, Calif.). Numbering of mutated residues was based on the distance from arginine 99^19. Successful mutations were verified with double-stranded sequencing of end-products (Genewiz Inc., North Brunswick, N.J.).
(§3) Recombinant receptors: Human embryonic kidney (HEK)-293 cells were transfected with α4 β2δ or other indicated subunit combinations (see Supplementary Methods) and co-transfected with enhanced green fluorescent protein for visualization. GABA-gated currents were recorded at room temperature (20-22° C.) at a holding potential of −50 mV^17 using a pipet solution containing 120 mM: N-methyl-D-glucamine chloride. Internal [Cl^−] or the holding potential were varied to alter the direction of Cl^− flow. […] Currents were recorded using an Axopatch 1D amplifier (Axon Instruments) filtered at 2 kHz (four-pole Bessel filter), detected at 10 kHz and analyzed with pClamp 9.2. Desensitization rate was determined using non-linear curve-fitting routines (Origin, Microcal; see next section).
In general terms: The patch-clamp technique gives a direct electrical read-out from membranes.

The test system of assay [2] is α4β2δ GABAA receptors with α4 mutations R351Q, K352Q, K316Q, R317Q and K318Q. The assay is described as above. It is filed as cell-based, mouse α4. The conditions noted are these: 30 nM THP. The protocol:
as §1, §2, §3

Assay [3] deals with T2, α4(R353K)β2δ GABAA receptors (UniProt P63138+Q9D6F4, R389K).
T2 construct: expressed in transfected cells; host or cells: HEK-293
Described as above. It counts as cell-based, mouse α4. The conditions noted are these: 30 nM THP. The procedure: as §1, §2, §3

Assay [4] addresses T3, α4[R353Q]β2δ GABAA receptors (UniProt P63138+Q9D6F4, R389Q).
T3 construct: expressed in transfected cells; host or cells: HEK-293
The description is as above. Conditions: 30 nM THP. It is filed as cell-based, mouse α4. The procedure:
as §1, §2, §3

The subject of the next assay is female C57BL6 mice. Description: Elevated plus maze (with or without restraint stress). It counts as in vivo, mouse. The text has this: Animal subjects. Prepubertal and pubertal female C57BL6 mice (3½-6 weeks old, +/+ and δ^−/−1) were housed in a reverse light:dark cycle (12:12). Both sets of mice were originally supplied by G. Homanics (Univ. of Pittsburgh), and were bred on site, with +/+ mice supplemented from Jackson Laboratories (Bar Harbor, Me.). Initially, age-matched+/+littermates of the δ^−/−were used as controls, but because they were indistinguishable from C57BL6, data from both groups were pooled. Genotyping of the tails verified that mice were homozygous δ^−/−. Some animals (+/+ or δ^−/−) were injected with finasteride (1,(5α)-androstene-4-aza-3-one-N-tert-butyl-17β-carboxaminde, Steraloids, 50 mg kg^, −1 intraperitoneally, 3 days) to block THP synthesis^2 or oil vehicle on a daily basis 1-1.5 h before dark onset, when THP levels increase, and tested 30 min. later. The onset of puberty was determined by vaginal opening, and pubertal mice tested on the day of first metestrus, identified by vaginal morphology and verification of first estrus the previous day. Mice with vaginal smears representative of diestrus were excluded from the study. Individual stages of puberty were not distinguished, and pre-pubertal mice were used before any visible signs of pubertal development, assessed by development of the peri-vaginal area. In some cases, pubertal mice were injected with replacement THP (3α-OH-5β-pregnan-20-one, 10 mg kg^−1, intraperitoneally in oil) for three days before testing. Procedures were in accordance with the SUNY Downstate Institutional Animal Care and Use Committee.
Restraint stress. In order to test the effect stress-induced release of THP^6,46,47 on anxiety, mice were restrained in a clear Plexiglas tube-type holder (Harvard Apparatus) for 45 min. and tested 20 min. later on the elevated plus maze (see Supplementary Methods). Open arm time was evaluated for 5 min. on the elevated plus maze. A decrease in open arm time reflects an increase in anxiety^18. In all cases, the results from each mouse tested after restraint was expressed relative to the averaged results from the sham controls, which were identical to the stressed animals (age, genotype, sex, drug-injected), except that they were not subjected to restraint stress.
Elevated plus maze. Testing rodent behavior on the elevated plus maze is an established animal model of anxiety^31. The plus maze consists of four 8×35 cm arms at 90° angles, elevated 57 cm above the floor. Two arms are enclosed by 33 cm walls, and two arms have no walls (“open arms”). […] Each animal was initially acclimated to the room for 30 min-1 h before being placed in the center of the maze, and exploratory activity recorded for 5 min. […]

For the compound `CC(=O)[C@H]1CC[C@H]2[C@@H]3CC[C@H]4C[C@H](O)CC[C@]4(C)[C@H]3CC[C@]12C` [THP, 3α-OH-5α[β]-pregnan-20-one], the “steroid-induced reduction in outward current at mutant receptor” value in assay [1] and in assay [4] (R353Q) was “prevented the steroid-induced reduction in outward current” throughout. Moreover, the “effect of mutation on THP inhibition of outward current” value in assay [2] is reported as “had no effect”. In assay [3], the “THP inhibition of outward current at mutant receptor” value is given as “did not prevent THP inhibition of outward current”. Besides, the “effect on inward current” value in assay [4] is on record as “increased inward current”. The “decrease of open arm time” value in the assay with female C57BL6 mice (10 mg kg−1 intraperitoneally, acute, after onset of puberty) is recorded as 35±8%. Also, the locomotor activity entry in the assay on female C57BL6 mice (10 mg kg−1 intraperitoneally, after onset of puberty) is recorded as “without changing locomotor activity”. Besides, the “anxiety response to stress after steroid replacement” value with female C57BL6 mice (replacement THP 10 mg kg−1 i.p. for three days at puberty) is “did not exhibit an anxiety response to stress”.
